Results taken from publication PMC6613765 (Journal of Virology, 2019).
Where a name gives a salt, the structure may show the parent alone. Read-outs that look alike come from different tables or passages of the source.

Legend:
[1] = in vitro; settings: mouse
[2] = system: HCoV-NL63; experiment: microbe, parasite or virus in culture; settings: Human coronavirus NL63, LLC-MK2, 72 h, read-out: HCoV-NL63 EC50
[3] = system: MHV-A59; experiment: microbe, parasite or virus in culture; settings: Murine coronavirus, 72 h, read-out: MHV-A59 EC50
[4] = system: HCoV-OC43-WT; settings: for EC50: read-out: HCoV-OC43 EC50
[5] = system: MERS-CoV; settings: for EC50: read-out: MERS-CoV EC50
[6] = system: DBT cells
[7] = system: BHK-21 cells
[8] = system: MHV-A59; settings: for EC50: read-out: MHV-A59 EC50
[9] = system: Vero E6 cells
[10] = system: LLC-MK2 cells
[11] = system: HCoV-NL63; settings: for EC50: read-out: HCoV-NL63 EC50
[12] = system: four CoVs (HCoV-OC43, HCoV-NL63, MERS-CoV, MHV-A59); experiment: organism not typed; assay type: cell-based; settings: read-out: EC50 values against all CoVs
[13] = system: HCoV-OC43-WT; set-up: species or system BALB/c mice
[14] = system: rOC43-ns2Del-Rluc; assay type: in vivo, BALB/c mice
[15] = system: SARS-CoV; settings: mouse, in vivo; cited from earlier work
[16] = system: SARS-CoV; settings: cited from earlier work
[17] = system: MERS-CoV; settings: cited from earlier work
[18] = system: pseudotyped MERS-CoV (HIV-1 backbone, spike protein of MERS-CoV); assay type: cell-based
[19] = system: MERS-CoV; settings: read-out: EC50, MERS-CoV; cited from earlier work
[20] = system: HCoV-229E; settings: read-out: EC50, HCoV-229E; CoV-infected human primary cells; cited from earlier work

COc1ccc2c(c1)[nH]c1c(C)nccc12 [Harmine]
CC50 [1]: > 20 µM | EC50 [2]: 13.5 µM | EC50 [3]: 13.8 µM

CCCCCC[C@H]1C(=O)O[C@H](C)[C@H](NC(=O)c2cccc(NC=O)c2O)C(=O)O[C@@H](C)[C@@H]1OC(=O)CC(C)C [Antimycin A]
CC50 [1]: 3.98 µM | EC50 [2]: 6.05 µM | EC50 [3]: 5.42 µM

CC(=O)[O][Hg][c]1ccccc1 [Phenylmercuric acetate]
EC50 [4]: 2.17 µM | EC50 [5]: 6.44 µM | CC50 [6]: 5.97 µM | CC50 [7]: 5.35 µM | EC50 [8]: 6.81 µM | CC50 [9]: 5.39 µM | CC50 [10]: 5.47 µM | EC50 [11]: 6.79 µM

CC(=O)Oc1cc2c(c(C)c1OC(C)=O)CC=C1[C@@]2(C)CC[C@@]2(C)C3C[C@](C)(C(=O)O)CC[C@]3(C)CC[C@]12C (stereo partly shown) [Dihydrocelastryl diacetate]
EC50 [4]: 1.71 µM | EC50 [5]: 10.6 µM | CC50 [6]: > 20 µM | CC50 [7]: > 20 µM | EC50 [8]: 4.24 µM | CC50 [9]: > 20 µM | CC50 [10]: > 20 µM | EC50 [11]: 0.65 µM

CCN(CC)CCNc1ccc(CO)c2sc3ccccc3c(=O)c12 [Hycanthone]
CC50 [1]: 4.19 µM | EC50 [2]: 5.76 µM | EC50 [3]: 5.78 µM

Monensin sodium
EC50 [4]: 3.81 µM | EC50 [5]: 3.27 µM | EC50 [12]: < 5 µM | EC50 [8]: 0.18 µM | EC50 [11]: 1.54 µM

CCCCCCOc1ccccc1C(N)=O [Exalamide]
CC50 [1]: > 20 µM | EC50 [2]: 17.5 µM | EC50 [3]: 16.4 µM

CN(C)CCN(Cc1ccc(Cl)cc1)c1ccccn1 [Chloropyramine]
CC50 [1]: > 20 µM | EC50 [2]: 14.2 µM | EC50 [3]: 2.42 µM

COc1c(C)c2c(c(O)c1C/C=C(\C)CCC(=O)OCCN1CCOCC1)C(=O)OC2 [Mycophenolate mofetil]
EC50 [12]: < 5 µM | CC50 [1]: 3.33 µM | CC50 ([7]; hamster): 3.43 µM | EC50 [2]: 0.23 µM | CC50 ([10]; rhesus monkey): 3.01 µM | EC50 [3]: 0.27 µM

Nc1ccc(/N=N/c2ccccc2)c(N)n1 [Phenazopyridine]
EC50 [12]: < 5 µM | CC50 [1]: > 20 µM | CC50 ([7]; hamster): > 20 µM | EC50 [2]: 2.02 µM | SI (CC50/EC50), MHV-A59 [8]: > 25.97 | CC50 ([10]; rhesus monkey): > 20 µM | EC50 [3]: 0.77 µM

C[C@@H]1C[C@@H]([C@H](O)CC2CC(=O)NC(=O)C2)C(=O)[C@@H](C)C1 [Cycloheximide]
CC50 [1]: 3.19 µM | EC50 [2]: 2.64 µM | EC50 [3]: 5.21 µM

C=CCc1ccccc1OCC(O)CNC(C)C (stereo not shown) [Alprenolol]
CC50 [1]: > 20 µM | EC50 [2]: 11.9 µM | EC50 [3]: 14 µM

O=C(Nc1ccccc1)OCC(CN1CCCCC1)OC(=O)Nc1ccccc1 (stereo not shown) [Diperodon]
CC50 [1]: 14.5 µM | EC50 [2]: 4.91 µM | EC50 [3]: 1.98 µM

O[C@H]1[C@H]2c3cc4c(cc3CN3CCC(=C[C@@H]1O)[C@H]23)OCO4 [Lycorine]
SI (CC50/EC50), HCoV-OC43 [4]: 29.13 | CC50 [1]: 3.51 µM | CC50 ([7]; hamster): 4.37 µM | HCoV-OC43 nucleocapsid protein in mouse brain coronal sections (IHC) ([13]; in vivo): present only in the PBS-DMSO-treated group, not in the lycorine-treated group | viral loads in the brain and spinal cord ([13]; mouse, in vivo): under the limit of detection | bioluminescence signal in the brain ([14]; 15 mg/kg daily, 2, 3 and 4 days postinoculation): no signal was detected | Rluc activity in PBS-DMSO-treated mice relative to treated mice ([14]; mouse brain, 72 h postinoculation, 15 mg/kg): ~2 × 10^5 fold | EC50 [2]: 0.47 µM | CC50 ([10]; rhesus monkey): 3.81 µM | EC50 [3]: 0.31 µM

COc1ccc2cc1Oc1ccc(cc1)C[C@H]1c3cc(c(OC)cc3CCN1C)Oc1c(OC)c(OC)cc3c1[C@H](C2)N(C)CC3 [Tetrandrine]
CC50 [1]: > 20 µM | EC50 [2]: 2.05 µM | EC50 [3]: 4.81 µM

CC[C@@H](C(=O)[C@@H](C)[C@@H](O)[C@H](C)[C@@H]1O[C@@H]([C@@H](CC)C(=O)O)CC[C@@H]1C)[C@H]1O[C@]2(C=C[C@@H](O)[C@]3(CC[C@@](C)([C@H]4CC[C@](O)(CC)[C@H](C)O4)O3)O2)[C@H](C)C[C@@H]1C [Salinomycin sodium]
CC50 [1]: 2.45 µM | EC50 [2]: 5.71 µM | EC50 [3]: 5.16 µM

Clc1ccccc1CN1CCc2sccc2C1 [Ticlopidine]
CC50 [1]: > 20 µM | EC50 [2]: 15.7 µM | EC50 [3]: 14.3 µM

CN(C)CCCN1c2ccccc2Sc2ccccc21 [Promazine]
CC50 [1]: > 20 µM | EC50 [2]: 1.37 µM | EC50 [3]: 0.51 µM

COc1cc2nc(N3CCN(C(=O)C4COc5ccccc5O4)CC3)nc(N)c2cc1OC (stereo not shown) [Doxazosin mesylate]
CC50 [1]: > 20 µM | EC50 [2]: 14 µM | EC50 [3]: 14.5 µM

CCC(CC)COC(=O)[C@H](C)N[P@](=O)(OC[C@H]1O[C@@](C#N)(c2ccc3c(N)ncnn23)[C@H](O)[C@@H]1O)Oc1ccccc1 [GS-5734]
lung viral load [15]: significantly reduced the lung viral load | IC50, SARS-CoV replication [16]: submicromolar | IC50, MERS-CoV replication [17]: submicromolar

Cc1cc(/C=C/c2ccc3cc(N(C)C)ccc3[n+]2C)c(C)n1-c1ccccc1 [Pyrvinium pamoate]
EC50 [12]: < 5 µM | EC50 [2]: 3.35 µM

CC[C@H]1CN2CCc3cc(OC)c(OC)cc3[C@@H]2C[C@@H]1C[C@H]1NCCc2cc(OC)c(OC)cc21 [Emetine]
SI (CC50/EC50), MERS-CoV [5]: 9.06 | EC50 [12]: < 5 µM | CC50 [1]: 3.51 µM | CC50 ([7]; hamster): 2.69 µM | EC50 [2]: 1.43 µM | luciferase activity reduced compared with control [18]: 50 fold | CC50 ([10]; rhesus monkey): 3.63 µM | EC50 [3]: 0.12 µM

COc1cc2c3cc1Oc1c(OC)c(OC)cc4c1[C@@H](Cc1ccc(O)c(c1)Oc1ccc(cc1)C[C@@H]3N(C)CC2)N(C)CC4 [Berbamine]
CC50 [1]: > 20 µM | EC50 [2]: 9.46 µM | EC50 [3]: 10.9 µM

COC(=O)[C@]1(C)CC[C@]2(C)CC[C@]3(C)C4=CC=C5C(=CC(=O)C(O)=C5C)[C@]4(C)CC[C@@]3(C)[C@@H]2C1 [Pristimerin]
CC50 [1]: > 20 µM | EC50 [2]: 1.63 µM | EC50 [3]: 9.17 µM

CCN(CC)CCOc1ccc2c(c1)C(=O)c1cc(OCCN(CC)CC)ccc1-2 [Tilorone]
CC50 [1]: > 20 µM | EC50 [2]: 6.89 µM | EC50 [3]: 16.1 µM

C[C@H]1[C@H]2CC[C@H]3[C@@H]4CC=C5C[C@@H](N(C)C)CC[C@]5(C)[C@H]4CC[C@]23CN1C [Conessine]
CC50 [1]: > 20 µM | EC50 [2]: 10.8 µM | EC50 [3]: 11.5 µM

CC[C@H]1/C=C/C=C/C[C@@H](C)[C@H](O)[C@@](C)(O)C(=O)[C@@H](C)[C@H](O)[C@@H](C)C(=O)[C@@H](C)[C@H](O)[C@@H](C)/C=C/C(=O)O[C@@H]2[C@H](C)[C@H](CC1)O[C@]1(CC[C@H](C)[C@H](C[C@@H](C)O)O1)[C@H]2C [Oligomycin]
CC50 [1]: 6.78 µM | EC50 [2]: 2.63 µM | EC50 [3]: 6.43 µM

COc1ccc(Cc2nccc3cc(OC)c(OC)cc23)cc1OC [Papaverine]
CC50 [1]: 12.4 µM | EC50 [2]: 7.32 µM | EC50 [3]: 11.5 µM

CCN(CC)CCCC(C)Nc1ccnc2cc(Cl)ccc12 (stereo not shown) [Chloroquine]
CC50 [1]: > 20 µM | antiviral activity in vivo, positive control ([13]; mouse): showed antiviral activity | EC50 [2]: 4.89 µM | EC50 [3]: 15.9 µM

CNCCCN1c2ccccc2CCc2ccccc21 [Desipramine]
CC50 [1]: > 20 µM | EC50 [2]: 6.68 µM | EC50 [3]: 8.75 µM

COc1c(C)c2c(c(O)c1C/C=C(\C)CCC(=O)O)C(=O)OC2 [Mycophenolic acid]
EC50 [12]: < 5 µM | CC50 [1]: 4.18 µM | CC50 ([7]; hamster): 3.55 µM | EC50 [2]: 0.18 µM | CC50 ([10]; rhesus monkey): 3.44 µM | EC50 [3]: 0.17 µM | SI (CC50/EC50), HCoV-NL63 [11]: 19.11

CC(C)[C@@H]1NC(=O)[C@H](C)OC(=O)[C@@H](C(C)C)NC(=O)[C@@H](C(C)C)OC(=O)[C@H](C(C)C)NC(=O)[C@H](C)OC(=O)[C@@H](C(C)C)NC(=O)[C@@H](C(C)C)OC(=O)[C@H](C(C)C)NC(=O)[C@H](C)OC(=O)[C@@H](C(C)C)NC(=O)[C@@H](C(C)C)OC1=O [Valinomycin]
CC50 [1]: 5.11 µM | EC50 [2]: 1.89 µM | EC50 [3]: 6.78 µM

O=C(/C=C/c1ccccc1)c1ccc(O)cc1 [4'-Hydroxychalcone]
CC50 [1]: > 20 µM | EC50 [2]: 7.25 µM | EC50 [3]: 9.75 µM

COC(=O)[C@H]1[C@@H](O)[C@@]2(O)c3c(OC)cc(O[C@@H]4O[C@@H]([C@H](O)CO)CO[C@H]4OC)cc3O[C@@]2(c2ccc(OC)cc2)[C@@H]1c1ccccc1 [silvestrol]
EC50 [19]: 0.0013 µM | EC50 [20]: 0.003 µM
